Results: patent US9029389B2 (Institut Pasteur Korea, priority 2011, dated 2015)

Legend:
M. tuberculosis H37Rv = assay: Acute TB mouse model of infection, bacterial load in lungs; format: in vivo, Mycobacterium tuberculosis; settings: for Log10CFU: 4 weeks of treatment
Human 5-lipoxygenase = target: T1, Human 5-lipoxygenase (Homo sapiens, UniProt P09917); assay: Activity of compounds against 5-LO enzyme (LTB4 measurement and/or fluorescence method); format: biochemical
T1 construct: purchased Cayman 60402; host or cells: insect cells
T1 sequence (P09917 1-674): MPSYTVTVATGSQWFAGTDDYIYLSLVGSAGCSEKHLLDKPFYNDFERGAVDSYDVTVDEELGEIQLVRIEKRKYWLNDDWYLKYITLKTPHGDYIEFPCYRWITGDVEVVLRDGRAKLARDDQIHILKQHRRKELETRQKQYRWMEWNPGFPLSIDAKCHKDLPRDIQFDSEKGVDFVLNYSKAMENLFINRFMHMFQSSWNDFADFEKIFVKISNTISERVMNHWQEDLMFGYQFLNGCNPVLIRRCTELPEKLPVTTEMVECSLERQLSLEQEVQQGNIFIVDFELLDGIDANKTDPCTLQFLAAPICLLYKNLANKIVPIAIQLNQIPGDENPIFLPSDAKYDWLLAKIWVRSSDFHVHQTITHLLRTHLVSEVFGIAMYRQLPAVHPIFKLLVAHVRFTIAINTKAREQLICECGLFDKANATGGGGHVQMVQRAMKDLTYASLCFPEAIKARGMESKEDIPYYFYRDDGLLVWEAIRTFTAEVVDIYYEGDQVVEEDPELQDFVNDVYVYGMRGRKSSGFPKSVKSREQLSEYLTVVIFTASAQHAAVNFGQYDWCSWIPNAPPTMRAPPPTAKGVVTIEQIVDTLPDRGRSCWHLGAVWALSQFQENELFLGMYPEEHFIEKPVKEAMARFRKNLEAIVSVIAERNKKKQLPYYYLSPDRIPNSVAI
In short: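 Two read-outs: LTB4 measured by EIA and/or LC/MS/MS with LTB4-d4 standard after 15 min RT compound preincubation with insect-cell 5-LO and a 5 min 37 °C reaction on 3 uM arachidonic acid (0.1 mM ATP, pH 7.4). The room-temperature fluorescence format used 20 uM H2DCFDA, 100 uM ATP, 3 uM arachidonic acid, 5 min; IC50 from 6/11-point curves.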

[1] = test system: inflammatory lesions in the lungs; assay: Acute TB mouse model of infection, histopathological analysis of lung tissue; format: in vivo, BalbC mice; settings: TB-infected mice, Hematoxylin and Eosin staining, compared with even INH treatment (FIG. 1)
Description: The effect of compound 127 on TB-infected mice was compared to that of the reference compound Isoniazid (INH). 8-week old female BalbC mice were infected with 6×10^5 M. tuberculosis H37Rv via intranasal instillation. Mice were sacrificed at day 1 to control the number of CFU in the lungs. In the acute model of infection, mice were treated for 4 weeks, starting at day 1. Compounds were freshly dissolved in a 0.5% methylcellulose solution and administered by oral gavage 5 times/week. Bacterial load was assessed in lungs after homogenizing the organs in 1×PBS. Serial dilutions of organ homogenates were spread on Middlebrook 7H11 plates and CFU were determined after 3 weeks incubation at 37° C. under 5% CO2. Histopathological analysis of lung tissue was performed by Hematoxylin and Eosin staining.

[2] = test system: production of LTB4 in human PBMC (peripheral blood mononuclear cells); assay: Production of LTB4 in PBMC (LTB4 secretion assay); format: cell-based; settings: 12 point dose response in duplicate
Description: Frozen human PBMC (peripheral blood mononuclear cells, AllCells, Cat#[…]) was diluted 50 times with fresh culture media (RPMI 1640 supplemented with 10% FBS, 2 mM L-alanyl-L-glutamine). Cells were harvested by centrifugation and resuspended in fresh culture media to a concentration of 5×10^6 cells per milliliter. 140 ul of cell suspension was then liquated to each well (96-well plate). After incubation at 37° C. for 1 hr under 5% CO2, 10 ul of serially diluted compounds (in 100% DMSO) and 10 ul of arachidonic acid to a final concentration of 30 uM were added and further incubated for 1 hr at 37° C. for 1 hr under 5% CO2. Then, inducers, such as A23187 (Ionophor), sodium arsenite, sodium chloride and/or Anti-DNP IgE, were added in a volume of 40 ul and cells were incubated at 37° C. for […]. Culture supernatant was harvested by centrifugation and LTB4 levels were quantified using LTB4 EIA kit (Cayman, Cat#520111). Six of the 378 compounds tested against the 5-LO enzyme in vitro were also selected to be tested for their activity in a human cellular assay. Compounds were tested in a 12 point dose response in duplicate.

Row | SMILES | Log10CFU (M. tuberculosis H37Rv; 25 mg/kg oral gavage 5 times/week) [Log10CFU] | inhibition at 10 µM (Human 5-lipoxygenase; 5-LO, single concentration of 10 uM in duplicate) [%] | IC50 (Human 5-lipoxygenase; 6 or 11 point dose response in duplicate) [µM] | melting point [°C] | number and size of inflammatory lesions in the lungs [1] | EC50 [2] [µM] | Log10CFU (M. tuberculosis H37Rv; 50 mg/kg oral gavage 5 times/week) [Log10CFU] | reduction of CFU compared to untreated mice (M. tuberculosis H37Rv; 50 mg/kg, after 4 weeks of treatment) [log CFU]
1 | NNC(=O)c1ccncc1 [INH, Isoniazid, reference compound] | 5.0 | – | – | – | – | – | – | –
2 | CCc1nc2cc(Cl)ccn2c1C(=O)NCc1ccc(N2CCN(c3ccc(F)cc3)CC2)cc1 [compound 127, 7-Chloro-2-ethyl-N-(4-(4-(4-fluorophenyl)piperazin-1-yl)benzyl)imidazo[1,2-a]pyridine-3-carboxamide] | – | > 69 | > 20 | 212 to 213 | significant reduction in the number and size of inflammatory lesions in the lungs | < 1 | 6.47 | ~1
